Several values for one entry are separate records, joined by “and”; a condition that tells them apart may be missing. Identical values can stand only once. Like-named read-outs stand apart in the source and are kept apart here. Where a SMILES comes first, the peptide text is derived from it. Bridges are numbered along the chain shown (N, C = ends). [ ]: non-standard residue; d: D form. The star is where a group is joined. X1 = NC[C@@H](CC(=O)*)c1cccc(Cl)c1; Dab = NCC[C@H](N)C(=O)O; Dap = NC[C@H](N)C(=O)O
How the values were obtained:
[1] = test system: P. aeruginosa ATCC BAA-3107 (SEN) and P. aeruginosa LESB58 (MDR); test: Frequency-of-resistance (FoR) assay, relative MIC of mutants; format: cell-based, Pseudomonas aeruginosa
Experimental: The susceptibility of antibiotics to resistance development was evaluated in two strains of each bacterial species: a multidrug-resistant strain and an antibiotic-sensitive strain of Escherichia coli, Klebsiella pneumoniae, Acinetobacter baumannii, and Pseudomonas aeruginosa. To explore first-step resistance, we previously used a standard protocol for spontaneous frequency-of-resistance analysis (FoR assay) at multiple concentrations of each antibiotic[10],[28],[31]–[33]. […] For all other combinations, approximately 10^10 bacterial cells were exposed to one of each antibiotic on agar plates for two days at concentrations where the given strain is susceptible. We examined resistance levels by contrasting the minimum inhibitory concentration (MICs) of the mutated strains to the original wild-type bacterial strain (i.e., relative MIC).
To estimate the frequency of spontaneous mutations that confer resistance in a microbial population, we conducted a frequency of resistance (FoR) assay following established protocols[10],[31]–[33]. […] Prior to plating, bacteria were grown overnight in MHB medium at 37 °C and 250 RPM, then centrifuged and washed in MHB. All experiments were performed in triplicate, and plates were incubated at 37 °C for 48 hours. Total colony-forming units (CFUs) were determined by plating appropriate dilutions onto antibiotic-free MHB agar. Resistance frequencies were calculated by dividing the number of resistant colonies by the initial viable cell count. From the plates with the highest antibiotic concentration, ten colonies were selected for MIC determination and whole-genome sequencing.
A robotic liquid handling system was used to automatically prepare a 11 to 16-step serial dilution in 384-well microtiter plates (Greiner). A final concentration of 5 × 10^5 bacterial cells per mL were inoculated into each well containing 60 µL MHB medium. Bacterial cultures were incubated at 37 °C with continuous shaking (Infors shaker, 900 rpm with 3 mm throw) for 18 hours (2 replicates from each). Cell growth was monitored by measuring the optical density (OD600 values, using Biotek Synergy microplate reader). MIC was defined as the antibiotic concentration of complete growth inhibition (i.e., OD600 < 0.05). Relative MIC was calculated as follows:1 relativeMIC=MICevolved/MICancestor […]
Supplementary Figure 3. Resistance levels following the frequency of resistance assay across bacterial strains. The level of resistance was measured as the fold change in relative MIC between evolved and ancestral strains. Data are grouped by bacterial strain (A. baumannii (AB), E. coli (EC), K. pneumoniae (KP), and P. aeruginosa (PA)) and categorized as either multidrug-resistant (MDR) or sensitive (SEN). Each data point represents a laboratory evolved line, and boxplots show the median, first and third quartiles, with whiskers indicating the 5th and 95th percentiles. […]
analysis was performed using two-sided Dunn’s post-hoc test with Benjamini-Hochberg correction for multiple comparisons (**/ * indicates p < 0.01/ 0.05). For detailed information on antibiotic and bacterial species, see Supplementary Table 1. For mode of action groups, refer to Table 1. Source data are provided as a Source Data file.

[2] = test system: E. coli; format: cell-based, Escherichia coli; settings: Escherichia coli, survival at 10xMIC for 4 hours, single replicates, (fig 9a source data)
Experimental: (§1) We employed image analysis to quantify bacterial survival under fixed antibiotic concentrations (10xMIC for 4 hours) on E. coli, A. baumannii, K. pneumoniae, and P. aeruginosa. […] Survival rate was quantified by calculating the ratio of the viable cells after antibiotic treatment and the total initial viable cell count.
(§2) Fig. 9 Killing kinetics of the studied antibiotics. a Bacterial survival rate in response to toxic antibiotic exposure. […] The bars indicate the survival rate (log10) compared to the untreated initial viable cell count (see “Methods”). Data are presented as mean values of 5 biological replicates ± SEM. The antibiotic group differentiation is denoted by color. […] Survival was estimated by measuring cell viability (colony-forming units/ml) of 2 biologically independent strains following a 4-hour exposure to different concentrations of 16 antibiotics on E. coli ATCC25922 (for further details, see “Methods”). The antibiotic concentration that kills 99.9% of the E. coli population is indicated as a vertical dotted line (see Supplementary Data 5). Error bars represent standard error calculated from the colony counts by Poisson’s model. A Hill function was fitted to the dose-response data from two biological replicates, producing sigmoidal curves (Supplementary Data 5). The Hill coefficient reflects how steeply the survival rate decreases in response to increasing antibiotic concentration ([…]). […] X-axis label colors indicate mode of action groups. For detailed information on antibiotic and bacterial species, see Supplementary Data 1. Source data are provided as a Source Data file.
(§3) In this current study, the killing kinetics of each antibiotic was measured according to a previously established experimental protocol[62] with minor modifications. During this assay, the bacterial cultures were exposed to antibiotics in 96-well assay plates and their viability after 4 hours of exposure was quantified by two methods: i) microplating and colony counting or ii) fluorescent staining of cells and counting of the fluorescent units.
(§4) Specifically, these experiments were performed in the following steps: (1) Preparation of bacterial stocks. Single colonies from each strain were isolated and grown overnight in MHB medium at 37 °C, 160 rpm. In case of the fluorescently tagged E. coli strains, the medium was supplemented with 10 μg/mL chloramphenicol, to maintain the pZS2R plasmid. Overnight cultures were diluted 1:5000 and grown to an optical density at 600 nm (OD600) of 0.25. These cultures were concentrated by centrifugation and small aliquots of 50 μL containing ~2.2 × 10^9 cells were frozen in glycerol (stored at −80 °C). (2) Preparing assay plates with antibiotics. 96-well plates were filled with 235 μL MHB and supplemented with antibiotics using an automated digital dispenser (D300e, Tecan). In the case of SCH79797, we used minimal media. […] For testing the clearance efficacy of each antibiotic at a single lethal dose, the 10x of the MIC for each antibiotic-strain pair were prepared in at least three replicates. (3) Antibiotic exposure. During the dose response assay, frozen cultures of the E. coli strains expressing YFP and mCherry were thawed and mixed at a 1:1 ratio, diluted 1:1000 in 30 mL MHB and incubated for 45 min at 37 °C and 160 rpm. During the single-dose assay, the frozen cultures of experimental strains (E. coli, K. pneumoniae, A. baumannii) were also thawed and diluted 1:1000 in 30 mL MHB and incubated at 37 °C to reach an OD of 0.25 and 160 rpm. Following this incubation phase, these bacterial cultures were then aliquoted into the 96-well deep-well antibiotic plates (15 μL culture; total volume of 250 μL) at an inoculum density of about 10^7 CFU.

[3] = test system: P. aeruginosa; format: cell-based, Pseudomonas aeruginosa; settings: Pseudomonas aeruginosa, survival at 10xMIC for 4 hours, single replicates, (fig 9a source data)
Experimental: as §1, §2, §3, §4

[4] = P. aeruginosa ATCC BAA 3107 (PA-SEN), evolved line 1
[5] = P. aeruginosa ATCC BAA 3107 (PA-SEN), evolved line 2
[6] = P. aeruginosa ATCC BAA 3107 (PA-SEN), evolved line 3
[7] = P. aeruginosa LESB 58 (PA-MDR), evolved line 1
[8] = P. aeruginosa LESB 58 (PA-MDR), evolved line 1, evolved vs ancestor
[9] = P. aeruginosa LESB 58 (PA-MDR), evolved line 2
[10] = P. aeruginosa LESB 58 (PA-MDR), evolved line 2, evolved vs ancestor
[11] = P. aeruginosa LESB 58 (PA-MDR), evolved line 3
[12] = P. aeruginosa LESB 58 (PA-MDR), evolved line 3, evolved vs ancestor
[13] = P. aeruginosa ATCC BAA 3107 (PA-SEN), evolved line 1, evolved vs ancestor
[14] = P. aeruginosa ATCC BAA 3107 (PA-SEN), evolved line 2, evolved vs ancestor
[15] = P. aeruginosa ATCC BAA 3107 (PA-SEN), evolved line 3, evolved vs ancestor

SMILES | MIC of evolved line [1, 4] | MIC of evolved line [1, 5] | MIC of evolved line [1, 6] | MIC of evolved line [1, 7] | Relative MIC [1, 8] | MIC of evolved line [1, 9] | Relative MIC [1, 10] | MIC of evolved line [1, 11] | Relative MIC [1, 12] | Relative MIC [1, 13] | Relative MIC [1, 14] | Relative MIC [1, 15] | also measured
Nc1nc(-n2cc(C(=O)O)c(=O)c3cc(F)c(N4CC(O)C4)c(Cl)c32)c(F)cc1F [Delafloxacin] | 2 µg/mL | 2 µg/mL | 2 µg/mL | 8 µg/mL | 4 | 8 µg/mL | 4 | 4 µg/mL | 2 | – | – | – | Survival rate (log10) ([2]; listed as DEL): -1.163 log10 and -1.03 log10 and -1.096 log10 and -1.128 log10 and -1.122 log10; Survival rate (log10) ([3]; listed as DEL): -0.244 log10 and -0.1736 log10 and -0.08683 log10 and -0.3488 log10 and -0.1122 log10
CN(C)[C@@H]1C(O)=C(C(N)=O)C(=O)[C@@]2(O)C(O)=C3C(=O)c4c(O)c(NC(=O)CN5CCCC5)cc(F)c4C[C@H]3C[C@@H]12 [Eravacycline] | 32 µg/mL | 32 µg/mL | 32 µg/mL | – | – | – | – | – | – | 8 | 8 | 8 | Survival rate (log10) ([2]; listed as ERA): -1.588 log10 and -1.262 log10 and -1.406 log10 and -1.2833 log10 and -1.1562 log10; Survival rate (log10) ([3]; listed as ERA): -0.509 log10 and -0.5518 log10 and -0.8039 log10 and -0.6612 log10 and -0.7582 log10
CC(C)C[C@@H]1NC(=O)[C@@H](Cc2ccccc2)NC(=O)[C@H](CCN)NC(=O)[C@@H](NC(=O)[C@H](CN)NC(=O)[C@@H](NC(=O)C[C@H](CN)c2cccc(Cl)c2)[C@@H](C)O)CCNC(=O)[C@H]([C@@H](C)O)NC(=O)[C@H](CCN)NC(=O)[C@H](CCN)NC1=O [SPR206] (X1-T[Dap][Dab][Dab][dF]L[Dab][Dab]T; lactam 3-C (inferred); N-terminus assumed) | 1 µg/mL | 1 µg/mL | 1 µg/mL | 128 µg/mL | 32 | 64 µg/mL | 16 | 64 µg/mL | 16 | 1 | 1 | 1 | Relative MIC ([1]; FoR assay, Pseudomonas aeruginosa ATCC BAA 3107 (PA-SEN), evolved line 1): 1; Relative MIC ([1]; FoR assay, Pseudomonas aeruginosa ATCC BAA 3107 (PA-SEN), evolved line 2): 1; Relative MIC ([1]; FoR assay, Pseudomonas aeruginosa ATCC BAA 3107 (PA-SEN), evolved line 3): 1; Survival rate (log10) ([2]; listed as SPR): -4.747 log10 and -3.687 log10 and -3.935 log10 and -4.007 log10 and -3.902 log10; Survival rate (log10) ([3]; listed as SPR): -6 log10 and -2.301 log10 and -2.534 log10 and -2.682 log10

— paper PMC11845477, “Exploring the principles behind antibiotics with limited resistance” (Nature Communications, 2025)
